Experimental data taken from the NIST ThermoML archive (doi:10.1021/je900550v).

Details: 101.33 kPa, Liquid; for speed of sound: Pulse-echo method; for mass density: Vibrating tube method

CC(C)C(=O)[O-].C[NH2+]CCO [2-hydroxy-N-methylethanaminium isobutyrate]
Details | mass density [kg/m3] | speed of sound [m/s] | viscosity [mPa·s]
308.15 K | 1036.92 | 1583.1 | –
308.4 K | 1036.77 | 1582.4 | –
308.65 K | 1036.6 | 1581.7 | –
308.9 K | 1036.44 | 1581 | –
309.15 K | 1036.28 | 1580.3 | –
309.4 K | 1036.11 | 1579.6 | –
309.65 K | 1035.95 | 1578.8 | –
309.9 K | 1035.79 | 1578.2 | –
310.15 K | 1035.62 | 1577.5 | –
310.4 K | 1035.46 | 1576.7 | –
310.65 K | 1035.29 | 1576 | –
310.91 K | 1035.13 | 1575.3 | –
311.16 K | 1034.97 | 1574.6 | –
311.4 K | 1034.81 | 1573.9 | –
311.65 K | 1034.64 | 1573.2 | –
311.91 K | 1034.48 | 1572.5 | –
312.16 K | 1034.32 | 1571.8 | –
312.41 K | 1034.15 | 1571.1 | –
312.66 K | 1033.99 | 1570.4 | –
312.91 K | 1033.82 | 1569.7 | –
313.15 K | – | – | 75.78
313.16 K | 1033.66 | 1569 | –
313.4 K | 1033.49 | 1568.3 | –
313.66 K | 1033.33 | 1567.5 | –
313.9 K | 1033.16 | 1566.8 | –
314.15 K | 1033 | 1566.1 | –
314.4 K | 1032.84 | 1565.4 | –
314.65 K | 1032.67 | 1564.7 | –
314.9 K | 1032.51 | 1564 | –
315.15 K | 1032.35 | 1563.3 | –
315.41 K | 1032.18 | 1562.6 | –
315.65 K | 1032.01 | 1561.9 | –
315.91 K | 1031.85 | 1561.2 | –
316.16 K | 1031.68 | 1560.5 | –
316.41 K | 1031.52 | 1559.8 | –
316.66 K | 1031.35 | 1559.1 | –
316.91 K | 1031.18 | 1558.4 | –
317.16 K | 1031.02 | 1557.7 | –
317.4 K | 1030.86 | 1557 | –
317.66 K | 1030.69 | 1556.2 | –
317.91 K | 1030.53 | 1555.5 | –
318.15 K | – | – | 60.1
318.16 K | 1030.36 | 1554.8 | –
318.41 K | 1030.19 | 1554.1 | –
318.65 K | 1030.03 | 1553.4 | –
318.9 K | 1029.87 | 1552.7 | –
319.16 K | 1029.7 | 1552 | –
319.41 K | 1029.53 | 1551.3 | –
319.65 K | 1029.37 | 1550.6 | –
319.91 K | 1029.2 | 1549.9 | –
320.16 K | 1029.03 | 1549.2 | –
320.41 K | 1028.87 | 1548.4 | –
320.65 K | 1028.7 | 1547.7 | –
320.91 K | 1028.54 | 1547 | –
321.15 K | 1028.37 | 1546.3 | –
321.41 K | 1028.2 | 1545.6 | –
321.66 K | 1028.03 | 1544.9 | –
321.9 K | 1027.87 | 1544.2 | –
322.15 K | 1027.7 | 1543.4 | –
322.41 K | 1027.54 | 1542.7 | –
322.65 K | 1027.37 | 1542 | –
322.91 K | 1027.2 | 1541.3 | –
323.15 K | – | – | 47.96
323.16 K | 1027.03 | 1540.6 | –
323.41 K | 1026.86 | 1539.9 | –
323.65 K | 1026.69 | 1539.2 | –
323.91 K | 1026.53 | 1538.5 | –
324.16 K | 1026.36 | 1537.7 | –
324.41 K | 1026.19 | 1537 | –
324.65 K | 1026.03 | 1536.3 | –
324.9 K | 1025.86 | 1535.6 | –
325.16 K | 1025.69 | 1534.9 | –
325.4 K | 1025.52 | 1534.2 | –
325.66 K | 1025.36 | 1533.5 | –
325.9 K | 1025.19 | 1532.8 | –
326.16 K | 1025.02 | 1532.1 | –
326.41 K | 1024.85 | 1531.4 | –
326.66 K | 1024.68 | 1530.7 | –
326.9 K | 1024.52 | 1529.9 | –
327.16 K | 1024.34 | 1529.2 | –
327.4 K | 1024.18 | 1528.5 | –
327.66 K | 1024.01 | 1527.8 | –
327.9 K | 1023.84 | 1527.1 | –
328.15 K | 1023.67 | 1526.4 | –
328.41 K | 1023.5 | 1525.7 | –
328.66 K | 1023.33 | 1524.9 | –
328.9 K | 1023.16 | 1524.2 | –
329.16 K | 1022.99 | 1523.5 | –
329.4 K | 1022.82 | 1522.8 | –
329.65 K | 1022.65 | 1522 | –
329.9 K | 1022.48 | 1521.3 | –
330.16 K | 1022.32 | 1520.6 | –
330.41 K | 1022.14 | 1519.9 | –
330.66 K | 1021.98 | 1519.1 | –
330.91 K | 1021.81 | 1518.4 | –
331.16 K | 1021.63 | 1517.7 | –
331.41 K | 1021.47 | 1517 | –
331.66 K | 1021.29 | 1516.2 | –
331.91 K | 1021.13 | 1515.5 | –
332.16 K | 1020.95 | 1514.8 | –
332.41 K | 1020.78 | 1514.1 | –
332.66 K | 1020.61 | 1513.4 | –
332.91 K | 1020.44 | 1512.7 | –
333.16 K | 1020.27 | 1511.9 | –
333.41 K | 1020.1 | 1511.2 | –
333.66 K | 1019.93 | 1510.5 | –
333.91 K | 1019.76 | 1509.8 | –
334.16 K | 1019.59 | 1509.1 | –
334.41 K | 1019.42 | 1508.3 | –
334.66 K | 1019.24 | 1507.6 | –
334.91 K | 1019.07 | 1506.9 | –
335.16 K | 1018.9 | 1506.2 | –
335.41 K | 1018.73 | 1505.5 | –
335.66 K | 1018.56 | 1504.7 | –
335.91 K | 1018.38 | 1504 | –
336.16 K | 1018.22 | 1503.3 | –
336.41 K | 1018.04 | 1502.6 | –
336.66 K | 1017.87 | 1501.9 | –
336.9 K | 1017.7 | 1501.2 | –
337.16 K | 1017.53 | 1500.4 | –
337.4 K | 1017.35 | 1499.7 | –
337.66 K | 1017.18 | 1499 | –
337.9 K | 1017.01 | 1498.3 | –
338.15 K | 1016.84 | 1497.7 | –
